In test [1] the target is T1, RNA-binding protein pos-1 (Caenorhabditis elegans, UniProt G5EF15).
T1 sequence (G5EF15 whole entry): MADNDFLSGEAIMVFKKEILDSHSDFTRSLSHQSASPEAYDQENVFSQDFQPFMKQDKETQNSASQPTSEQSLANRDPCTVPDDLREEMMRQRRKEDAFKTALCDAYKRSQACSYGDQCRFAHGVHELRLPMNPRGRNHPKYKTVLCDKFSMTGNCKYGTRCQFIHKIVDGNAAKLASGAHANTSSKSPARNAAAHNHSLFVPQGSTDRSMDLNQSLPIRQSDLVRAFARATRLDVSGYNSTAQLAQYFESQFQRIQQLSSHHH
Description: disruptors of C. elegans POS-1 RNA interaction – biochemical, fluorescence polarization, dose response (AID 1964).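 Further: purified POS-1 fused to maltose binding protein made in E. coli; potency of compounds blocking POS-1 binding to fluorescent RNA.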 For orientation: In fluorescence polarisation assays a small probe gives low polarisation when free and higher when bound to something large.

Test [2] has as its target T2, Zinc finger protein mex-5 (Caenorhabditis elegans, UniProt Q9XUB2).
T2 sequence (Q9XUB2 whole entry): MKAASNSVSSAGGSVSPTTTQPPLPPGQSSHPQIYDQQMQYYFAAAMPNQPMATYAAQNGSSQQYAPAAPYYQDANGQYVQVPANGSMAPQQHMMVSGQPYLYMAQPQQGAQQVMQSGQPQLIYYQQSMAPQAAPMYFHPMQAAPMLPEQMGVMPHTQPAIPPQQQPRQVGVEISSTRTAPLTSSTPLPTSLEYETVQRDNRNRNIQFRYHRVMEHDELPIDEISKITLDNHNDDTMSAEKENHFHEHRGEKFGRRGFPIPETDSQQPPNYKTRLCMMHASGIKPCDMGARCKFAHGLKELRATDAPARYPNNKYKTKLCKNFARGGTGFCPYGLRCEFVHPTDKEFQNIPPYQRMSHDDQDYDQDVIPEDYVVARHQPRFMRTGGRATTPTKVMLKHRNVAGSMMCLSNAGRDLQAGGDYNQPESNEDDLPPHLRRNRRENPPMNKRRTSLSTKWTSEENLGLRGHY
Description: potency of MEX-5 RNA-binding blockers – biochemical, C. elegans, fluorescence polarization, dose response (AID 1960).

In test [3] the target is T3, Replicative DNA helicase DnaB (Mycobacterium tuberculosis, UniProt P9WMR3).
T3 sequence (P9WMR3 whole entry): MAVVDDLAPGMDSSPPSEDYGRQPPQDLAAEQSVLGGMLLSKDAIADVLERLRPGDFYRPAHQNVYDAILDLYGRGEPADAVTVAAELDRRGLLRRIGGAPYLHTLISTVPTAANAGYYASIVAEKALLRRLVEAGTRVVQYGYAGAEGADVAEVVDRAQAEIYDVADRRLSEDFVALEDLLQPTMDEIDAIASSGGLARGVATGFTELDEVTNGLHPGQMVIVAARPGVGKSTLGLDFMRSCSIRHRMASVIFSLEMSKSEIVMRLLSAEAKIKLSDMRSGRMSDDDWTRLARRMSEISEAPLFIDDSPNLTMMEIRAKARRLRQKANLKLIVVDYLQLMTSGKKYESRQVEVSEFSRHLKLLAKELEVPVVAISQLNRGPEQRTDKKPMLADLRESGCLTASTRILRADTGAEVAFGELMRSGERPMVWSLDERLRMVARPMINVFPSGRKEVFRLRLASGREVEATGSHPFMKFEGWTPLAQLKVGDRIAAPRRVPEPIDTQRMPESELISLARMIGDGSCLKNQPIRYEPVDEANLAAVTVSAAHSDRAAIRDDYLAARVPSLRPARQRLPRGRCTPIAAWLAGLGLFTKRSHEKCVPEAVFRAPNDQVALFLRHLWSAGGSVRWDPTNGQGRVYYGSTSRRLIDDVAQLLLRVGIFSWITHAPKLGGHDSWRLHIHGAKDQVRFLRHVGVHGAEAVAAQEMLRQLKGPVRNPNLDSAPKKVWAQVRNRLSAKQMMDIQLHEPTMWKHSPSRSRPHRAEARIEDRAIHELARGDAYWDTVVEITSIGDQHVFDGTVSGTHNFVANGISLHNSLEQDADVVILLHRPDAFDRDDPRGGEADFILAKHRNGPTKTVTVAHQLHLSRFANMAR
Kind of test: DnaB intein splicing inhibitors, dose response, biochemical, cell-free fluorescence (AID 449749). The test is classed as functional.

The target of test [4] is T4, Protein RecA (Mycobacterium tuberculosis, UniProt P9WHJ3).
T4 sequence (P9WHJ3 whole entry): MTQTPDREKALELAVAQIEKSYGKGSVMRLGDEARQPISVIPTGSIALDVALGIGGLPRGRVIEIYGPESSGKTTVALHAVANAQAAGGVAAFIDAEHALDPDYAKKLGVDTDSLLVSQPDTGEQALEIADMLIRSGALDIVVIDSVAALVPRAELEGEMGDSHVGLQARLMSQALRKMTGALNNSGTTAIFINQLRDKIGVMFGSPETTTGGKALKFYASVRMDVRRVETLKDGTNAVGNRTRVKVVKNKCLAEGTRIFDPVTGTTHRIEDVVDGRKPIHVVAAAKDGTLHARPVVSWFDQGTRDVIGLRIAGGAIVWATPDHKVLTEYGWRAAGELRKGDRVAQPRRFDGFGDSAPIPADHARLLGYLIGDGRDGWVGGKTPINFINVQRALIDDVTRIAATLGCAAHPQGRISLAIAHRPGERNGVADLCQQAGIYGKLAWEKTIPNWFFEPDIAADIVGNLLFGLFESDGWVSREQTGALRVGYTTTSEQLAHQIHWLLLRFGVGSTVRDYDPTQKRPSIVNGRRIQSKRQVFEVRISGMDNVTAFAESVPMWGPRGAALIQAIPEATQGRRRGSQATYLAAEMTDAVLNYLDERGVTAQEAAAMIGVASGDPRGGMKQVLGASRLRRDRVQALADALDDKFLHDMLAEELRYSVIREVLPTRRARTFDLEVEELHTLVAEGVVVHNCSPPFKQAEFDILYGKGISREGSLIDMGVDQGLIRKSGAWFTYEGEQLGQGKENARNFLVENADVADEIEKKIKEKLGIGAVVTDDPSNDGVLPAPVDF
Description: Fluorescence Cell-Free Homogeneous Dose Retest to Identify Inhibitors of RecA-Intein Splicing Activity. [Related pubchem assays (depositor defined):AID2097, AID2223, AID489010, AID492950]. The test is classed as functional.

Test [5] has as its target Luciferin 4-monooxygenase (Photinus pyralis, UniProt P08659). Kind of test: inhibition of purified Photinus pyralis luciferase – biochemical, luminescence, dose response (AID 1891).
Test [6] is described as follows: Luminescence Cell-Based Dose Confirmation HTS to Identify Inhibitors of Platelet Dense Granule Release. [Related pubchem assays: 1663 (Primary HTS), 1678 (Summary of Project)]. The test is classed as functional.
Test [7] addresses T5, Heat shock factor protein 1 (Mus musculus, UniProt P38532).
T5 sequence (P38532 whole entry): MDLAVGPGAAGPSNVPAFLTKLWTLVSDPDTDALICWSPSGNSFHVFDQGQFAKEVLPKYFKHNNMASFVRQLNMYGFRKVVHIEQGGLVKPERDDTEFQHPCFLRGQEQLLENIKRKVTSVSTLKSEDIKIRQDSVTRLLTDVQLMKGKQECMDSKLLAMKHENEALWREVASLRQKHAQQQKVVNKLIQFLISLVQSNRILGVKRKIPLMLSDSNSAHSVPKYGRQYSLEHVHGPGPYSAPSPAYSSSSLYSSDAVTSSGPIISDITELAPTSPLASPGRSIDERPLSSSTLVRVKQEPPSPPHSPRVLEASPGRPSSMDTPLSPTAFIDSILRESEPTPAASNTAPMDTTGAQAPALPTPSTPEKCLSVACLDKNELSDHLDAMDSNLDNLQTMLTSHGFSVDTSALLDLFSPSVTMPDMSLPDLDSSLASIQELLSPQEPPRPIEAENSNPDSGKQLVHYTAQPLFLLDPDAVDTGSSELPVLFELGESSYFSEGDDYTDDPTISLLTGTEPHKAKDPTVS
Kind of test: enhancement of HSF1-driven luciferase signal – cell-based, NIH3T3, luminescence, dose retest, confirmation (AID 435004).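 Further: stress induced by proteasome inhibitor MG132 added 30 min after compound; luciferase reporter driven by HSF1 response element in NIH3T3 cells; actives raise luminescence as potentiators of the MG132 stress response.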 It is filed as functional.

Test [8] is described as follows: Luminescence Cell-Based Dose Confirmation HTS to Identify Activators of 5'UTR Stem-Loop Driven Alpha-Synuclein mRNA Translation in H4 Neuroglioblastoma Cells. [Related pubchem assays: 1829 (Project Summary), 1814 (Primary HTS)]. It is filed as functional.
Test [9] can be described thus: Luminescence Cell-Based Dose Response HTS to Identify Activators of Luciferase Translation or Activity in H4 […] Cells. [Related pubchem assays: 1829 (Project Summary), 1814 (Primary HTS)]. It is filed as functional.
Test [10] relates to H4. Description: Luminescence Cell-Based Dose Response HTS to Identify Activators of 5'UTR Stem-Loop Driven Prion Protein mRNA Translation in H4 Neuroglioblastoma Cells. [Related pubchem assays: 1829 (Project Summary), 1814 (Primary HTS)]. The test is classed as functional. To be noted: Homo sapiens.
The nature of test [11]: luciferase reporter signal suppression in cells – H4 neuroglioma cells, luminescence, dose response (AID 1990). The test is classed as functional, cell-based. On the technique in general: In a reporter assay the amount or activity of a reporter protein is the signal.
A short description of test [12]: alpha-synuclein stem-loop luciferase translation blockers – H4 neuroglioma cells, luminescence, confirmation (AID 1988). It is filed as functional, cell-based.

Structures are written as SMILES. The source made the active and inactive calls. For most assays here, no stated cut-off is given here; in the data, actives have a measured EC50 and inactives only a lower limit.

As usually defined, the EC50 is the concentration needed to bring the measured effect to its halfway point. As a reminder, the AC50 is the concentration at which the activity in the assay is half-maximal.

Chain of Luciferin 4-monooxygenase (P08659 whole entry): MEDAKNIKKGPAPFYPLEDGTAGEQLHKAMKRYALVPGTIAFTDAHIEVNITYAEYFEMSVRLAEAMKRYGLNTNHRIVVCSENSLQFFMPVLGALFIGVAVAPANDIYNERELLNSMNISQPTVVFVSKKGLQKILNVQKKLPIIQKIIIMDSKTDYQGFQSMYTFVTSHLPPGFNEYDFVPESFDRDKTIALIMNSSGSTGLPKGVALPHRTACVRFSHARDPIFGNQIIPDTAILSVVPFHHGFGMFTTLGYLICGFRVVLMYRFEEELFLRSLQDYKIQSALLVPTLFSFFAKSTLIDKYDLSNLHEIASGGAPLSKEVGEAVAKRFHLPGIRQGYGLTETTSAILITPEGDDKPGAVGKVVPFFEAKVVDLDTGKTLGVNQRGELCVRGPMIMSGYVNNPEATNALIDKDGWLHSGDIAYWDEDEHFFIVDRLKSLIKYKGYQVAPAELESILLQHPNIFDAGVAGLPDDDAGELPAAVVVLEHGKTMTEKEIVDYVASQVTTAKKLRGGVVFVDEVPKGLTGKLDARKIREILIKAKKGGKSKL

For `COC(=O)CCC(=O)OC1(C)C(=O)C2=COC(c3ccc(OC)cc3)=CC2=C(Br)C1=O` (stereo unspecified), the figures for the EC50 in test [1] and in test [2] were 91.5 µM (active) and 33.1 µM (active), respectively.
As for `COc1ccccc1NC(=O)CSc1nc2c(sc3ccccc32)c(=O)n1CCN(C)C`, the AC50 in test [3] is 58.7 µM (active). Further, in test [4], the EC50 is 12.9 µM (active).
For the compound `COc1ccc(-c2cc(C(F)(F)F)nc(SCC(=O)N3CCOCC3)n2)cc1OC`, the half-maximal effective concentration (EC50) in [5] was > 112 µM (not active); in test [6] it was 15.8 µM (active).
The like results for `CCCc1cc(=O)oc2c(C)c(OCC(=O)Nc3ccc(CN4CCOCC4)cc3)ccc12` were, in that order, > 112 µM (not active) and > 112 µM (not active).
Turning to `Cc1cc(C)cc(NC(=O)CN2C(=O)NC(C)(c3ccccc3)C2=O)c1` (stereo unspecified), the EC50 in test [7] was > 260 µM (inactive).
As for `Cc1ccn2c(=O)nc(SCC(=O)Nc3cc(C)on3)nc2c1`, the EC50 in test [1] and in test [2] was > 300 µM (not active) throughout.
In the case of `CC1CCN(c2ccc(C=O)o2)CC1`, the EC50 in [7] was > 260 µM (inactive).
With `CCN(CC)S(=O)(=O)c1ccc(N2CCN(S(=O)(=O)c3ccccc3C#N)CC2)nc1`, the AC50 in test [3] is > 380 µM (inactive). Further, the EC50 in [4] is > 380 µM (inactive).
On to `COc1ccc(C(=O)N=C(N)Nc2nc3ccccc3o2)cc1`, for which the EC50 in [8] was > 120 µM (not active); in [9], 24.2 µM (active); in test [10], 29.5 µM (active).
As for `Cn1c(SCc2cccc(C(F)(F)F)c2)nnc1-c1ccco1`, in [7], the EC50 was > 260 µM (inactive).
For `COc1ccc(/C=C2/N=C(c3cccs3)OC2=O)cc1OC(C)C`, the EC50 was > 300 µM (not active) in test [1] and 41.1 µM (active) in test [2].
As to `COC(=O)c1ccccc1NC(=S)NC(=O)c1ccc(C)cc1`, the AC50 in test [3] was 0.452 µM (active). The 50% effective concentration (EC50) in [4] was 0.239 µM (active).
On to `NS(=O)(=O)c1ccc(NC(=O)COC(=O)c2cn(-c3ccccc3)nc2-c2ccc(F)cc2)cc1`, for which the EC50 in test [1] and in test [2] was > 300 µM (not active) throughout.
In the case of `CCOC(=O)c1c(NC(=O)COC(=O)c2ncc(Cl)c(Cl)c2Cl)sc(C(=O)N(C)C)c1C`, in [3], the AC50 is 14.1 µM (active). Besides, the EC50 in [4] is 45.5 µM (active).
In the case of `COc1cc(CNCC(O)c2ccccc2)ccc1OCc1ccc(Cl)nc1` (stereo unspecified), the EC50 in test [7] is > 260 µM (inactive).
With `COc1ccc(C2C(C#N)=C(N)OC3=C2C(=O)CCC3)cc1Cn1nc(C)c([N+](=O)[O-])c1C` (stereo unspecified), the EC50 in test [1] and in test [2] was > 300 µM (not active) throughout.
For `C/C(NCc1ccc2c(c1)OCO2)=C1/C(=O)NC(=O)N(c2ccccc2)C1=O`, the EC50 in [1] and in test [2] was > 300 µM (not active) in each case.
Consider `CCN1C(=O)c2cccc3c(S(=O)(=O)Nc4ncccc4C)ccc1c23`, for which, in [7], the EC50 is > 260 µM (inactive).
The same measure, in the same setting: the figure for `CCOCCCN=C(S)Nc1ccc2nc(N3CCOCC3)cc(C)c2c1` is > 260 µM (inactive).
For `CCCCc1noc2c1/C(=N\O)CC(c1ccccc1)C2` (stereo unspecified), the EC50 was > 120 µM (not active) in test [8], 6.02 µM (active) in [9] and 27.9 µM (active) in test [10].
As to `O=C(c1cccnc1S)N1CCN(S(=O)(=O)c2ccc(Br)cc2Cl)CC1`, the EC50 in test [7] is > 260 µM (inactive).
For `Cc1cnn(-c2cc(Oc3ccccc3)ncn2)c1`, the results for the half-maximal effective concentration (EC50) in test [8], in test [9] and in [10] were 1.11 µM (active), 97.4 µM (active) and 11 µM (active), respectively.
The like results for `Brc1ccc2oc3c(N4CCOCC4)ncnc3c2c1` were, in that order, 18.5 µM (active), 4.18 µM (active) and 14.7 µM (active).
With `Cc1cccn2c(=O)c3cc(C(=O)NCCN4CCOCC4)c(=N)n(Cc4cccnc4)c3nc12`, the EC50 was 12.6 µM (active) in test [11], > 300 µM (not active) in test [1], 87.2 µM (active) in test [2] and 9.91 µM (active) in test [12].
`Cc1cccc(CC(C)NC(=O)c2oc3c(F)cccc3c2C)n1` (stereo unspecified): the EC50 in test [7] is > 260 µM (inactive).
On to `CS(=O)(=O)NNC(=O)Cn1nnc(-c2ccc(OCc3ccccc3Cl)cc2)n1`, for which the figures for the EC50 in [8], in test [9] and in [10] were 18.2 µM (active), 25 µM (active) and > 120 µM (not active), respectively.
